The results in this text go back to patent US20230117034A1, “PYRAZOLOTRIAZINES” (Bayer Aktiengesellschaft, priority 2019, published 2023).

The target of one experiment is CDK12/CycK (Homo sapiens, UniProt Q9NYV4). Nature of the experiment: CDK12/CycK high ATP kinase assay (TR-FRET, 2 mM ATP). The format is biochemical. The note with it: 2 mM ATP (high ATP); median; read-out: CDK12/CyclinK, 2 mM ATP (high ATP), IC50-[mol/l] (median). The essentials:
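His-tagged human CDK12/CycK (~0.75 nM) pre-incubated 15 min with compound, then 60 min at 22 °C with 2 mM ATP and 1 µM biotinylated peptide (HEPES pH 7.5, 20 mM MgCl2). EDTA stop; phospho-Ser62 antibody/Eu anti-rabbit and streptavidin-XL665 TR-FRET, 665/620 nm ratio normalised to give IC50.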

Experiment [1] relates to BRCA1 mRNA expression in MDA-MB-231 cells. Nature of the experiment: qRT-PCR assay: BRCA1 mRNA expression in MDA-MB-231. The format is cell-based, human. The note with it: median, read-out: RTqPCR-MDA-MB-231, IC50, BRCA1 (median). The essentials: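 Read-out is RT-qPCR with expression normalised to the GAPDH housekeeping gene. Before RNA isolation, plated cells (200,000 per well, 24 h attachment) received test substances continuously over 24 h, and 600 ng of RNA served as cDNA template.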
(Quantitative PCR measures a nucleic acid by following its amplification.)

[2] abbreviates: Homo sapiens, MDA-MB-231, Inhibition of BRCA1 mRNA expression in MDA-MB-231 cells.

pIC50: −log10 of the molar value. Where two headings read alike, the source gives them in different places.

CDK12/CycK, sequence (Q9NYV4 with tags, fused parts or gaps): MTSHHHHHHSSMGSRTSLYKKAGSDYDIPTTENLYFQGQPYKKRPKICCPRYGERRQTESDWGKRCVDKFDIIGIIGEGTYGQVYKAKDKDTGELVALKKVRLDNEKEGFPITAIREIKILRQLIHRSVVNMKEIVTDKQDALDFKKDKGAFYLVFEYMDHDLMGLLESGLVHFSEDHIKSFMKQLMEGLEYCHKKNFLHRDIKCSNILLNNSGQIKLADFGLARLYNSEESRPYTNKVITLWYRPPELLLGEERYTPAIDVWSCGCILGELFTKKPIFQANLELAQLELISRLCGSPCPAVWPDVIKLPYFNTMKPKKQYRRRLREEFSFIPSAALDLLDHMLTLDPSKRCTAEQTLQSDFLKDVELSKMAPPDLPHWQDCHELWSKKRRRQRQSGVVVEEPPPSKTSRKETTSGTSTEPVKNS
CDK12/CycK, sequence (O75909 1-300 partner limits assumed): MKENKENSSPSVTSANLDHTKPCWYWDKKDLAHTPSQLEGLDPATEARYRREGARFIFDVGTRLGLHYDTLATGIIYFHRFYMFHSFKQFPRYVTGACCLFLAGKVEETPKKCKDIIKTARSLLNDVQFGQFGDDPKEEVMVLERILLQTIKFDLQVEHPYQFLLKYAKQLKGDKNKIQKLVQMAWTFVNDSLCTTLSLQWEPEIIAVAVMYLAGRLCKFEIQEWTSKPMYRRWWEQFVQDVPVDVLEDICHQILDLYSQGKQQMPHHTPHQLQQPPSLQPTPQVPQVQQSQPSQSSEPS

With `Brc1cnn2c(NCc3nc4ccccc4[nH]3)nc(N3C[C@H]4CC[C@@H]3CN4)nc12` (single isomer, unassigned) [Example 335, N-[(1H-benzimidazol-2-yl)methyl]-8-bromo-2-{[1R or S-(1R*,4R*)]-2,5-diazabicyclo[2.2.2]octan-2-yl}pyrazolo[1,5-a][1,3,5]triazin-4-amine], the pIC50 at CDK12/CycK is 5.18; in experiment [1] (Inhibition of BRCA1 mRNA expression in MDA-MB-231 cells), 7.90.

For the compound `CN1CCN(c2nc(NCc3nc4cc(Cl)c(Cl)cc4[nH]3)n3ncc(Br)c3n2)CC1` [Example 330, 8-bromo-N-[(5,6-dichloro-1H-benzimidazol-2-yl)methyl]-2-(4-methylpiperazin-1-yl)pyrazolo[1,5-a][1,3,5]triazin-4-amine], the pIC50 on CDK12/CycK was 5.33; in experiment [1] (setting [2]), 8.25.

Regarding `Fc1ccc2[nH]c(CNc3nc(N4CCOCC4)nc4c(Cl)cnn34)nc2c1F` [Example 357], the values for the pIC50 (at CDK12/CycK; in experiment [1] (setting [2])) were 5.94 and 8.22, respectively.

For `CN1C2CCC1CN(c1nc(NCc3nc4c(F)c(F)ccc4[nH]3)n3ncc(C(F)(F)F)c3n1)C2` [Example 356, N-[(4,5-difluoro-1H-benzimidazol-2-yl)methyl]-2-(8-methyl-3,8-diazabicyclo[3.2.1]octan-3-yl)-8-(trifluoromethyl)pyrazolo[1,5-a][1,3,5]triazin-4-amine], the values for the pIC50 (on CDK12/CycK; in experiment [1] (setting [2])) were 5.31 and 8.30, respectively.

With `Clc1cc2nc(CNc3nc(N4CC5CCC(C4)N5)nc4c(C5CC5)cnn34)[nH]c2cc1Cl` [Example 324, 8-cyclopropyl-2-(3,8-diazabicyclo[3.2.1]octan-3-yl)-N-[(5,6-dichloro-1H-benzimidazol-2-yl)methyl]pyrazolo[1,5-a][1,3,5]triazin-4-amine], the pIC50 was 6.07 at CDK12/CycK and 8.05 in experiment [1] (setting [2]).

For `CN(CC(C)(C)O)c1nc(NCc2nc3c(F)c(F)ccc3[nH]2)n2ncc(Cl)c2n1` [Example 359, 1-[(8-chloro-4-{[(4,5-difluoro-1H-benzimidazol-2-yl)methyl]amino}pyrazolo[1,5-a][1,3,5]triazin-2-yl)(methyl)amino]-2-methylpropan-2-ol], the pIC50 is 5.68 on CDK12/CycK and 8.48 in experiment [1] (setting [2]).

For the compound `Brc1cnn2c(NCc3nc4ccccc4[nH]3)nc(N3CC4CCC3CO4)nc12` (centres unmarked) [Example 352, N-[(1H-benzimidazol-2-yl)methyl]-8-bromo-2-(2-oxa-5-azabicyclo[2.2.2]octan-5-yl)pyrazolo[1,5-a][1,3,5]triazin-4-amine], the pIC50 on CDK12/CycK was 5.28; in experiment [1] (setting [2]), 8.31.

Regarding `CN(CC(C)(C)O)c1nc(NCc2nc3c(F)c(Cl)ccc3[nH]2)n2ncc(C3CC3)c2n1` [Example 387, 1-[(4-{[(5-chloro-4-fluoro-1H-benzimidazol-2-yl)methyl]amino}-8-cyclopropylpyrazolo[1,5-a][1,3,5]triazin-2-yl)(methyl)amino]-2-methylpropan-2-ol], the pIC50 on CDK12/CycK was 6.63; in experiment [1] (setting [2]) it was 8.25.

For `Cc1cc2nc(CNc3nc(N4CCOCC4)nc4c(C5CC5)cnn34)[nH]c2cc1C` [Example 320, 8-cyclopropyl-N-[(5,6-dimethyl-1H-benzimidazol-2-yl)methyl]-2-(morpholin-4-yl)pyrazolo[1,5-a][1,3,5]triazin-4-amine], the pIC50 was 6.25 on CDK12/CycK and 8.44 in experiment [1] (setting [2]).

On to `Fc1cccc2[nH]c(CNc3nc(N4CCOCC4)nc4c(Cl)cnn34)nc12` [Example 361, 8-chloro-N-[(4-fluoro-1H-benzimidazol-2-yl)methyl]-2-(morpholin-4-yl)pyrazolo[1,5-a][1,3,5]triazin-4-amine], for which the pIC50 was 5.84 at CDK12/CycK and 8.04 in experiment [1] (setting [2]).

On to `CN(CC(C)(C)O)c1nc(NCc2nc3cc(C(F)(F)F)ccc3[nH]2)n2ncc(Br)c2n1` [Example 345, 1-{[8-bromo-4-({[5-(trifluoromethyl)-1H-benzimidazol-2-yl]methyl}amino)pyrazolo[1,5-a][1,3,5]triazin-2-yl](methyl)amino}-2-methylpropan-2-ol], for which the pIC50 is 6.18 at CDK12/CycK and 8.55 in experiment [1] (setting [2]).

Turning to `FC(F)(F)c1ccc2[nH]c(CNc3nc(N4CCOCC4)nc4c(C5CC5)cnn34)nc2c1` [Example 322, 8-cyclopropyl-2-(morpholin-4-yl)-N-{[5-(trifluoromethyl)-1H-benzimidazol-2-yl]methyl}pyrazolo[1,5-a][1,3,5]triazin-4-amine], the results for the pIC50 (on CDK12/CycK; in experiment [1] (setting [2])) were 5.92 and 8.45, respectively.

With `CN(CC(C)(C)O)c1nc(NCc2nc3c(F)cccc3[nH]2)n2ncc(Cl)c2n1` [Example 366, 1-[(8-chloro-4-{[(4-fluoro-1H-benzimidazol-2-yl)methyl]amino}pyrazolo[1,5-a][1,3,5]triazin-2-yl)(methyl)amino]-2-methylpropan-2-ol], the pIC50 on CDK12/CycK is 5.74; in experiment [1] (setting [2]), 7.57.

With `Cc1cc2nc(CNc3nc(N4CC5CCC(C4)N5)nc4c(C5CC5)cnn34)[nH]c2cc1C` [Example 326, 8-cyclopropyl-2-(3,8-diazabicyclo[3.2.1]octan-3-yl)-N-[(5,6-dimethyl-1H-benzimidazol-2-yl)methyl]pyrazolo[1,5-a][1,5]triazin-4-amine], the pIC50 is 6.03 on CDK12/CycK and 8.79 in experiment [1] (setting [2]).

In the case of `Fc1cc(F)cc(-c2nnc(CNc3nc(N4CCOCC4)nc4c(C(F)(F)F)cnn34)[nH]2)c1` [Example 386, N-{[5-(3,5-difluorophenyl)-4H-1,2,4-triazol-3-yl]methyl}-2-(morpholin-4-yl)-8-(trifluoromethyl)pyrazolo[1,5-a][1,3,5]triazin-4-amine], the pIC50 on CDK12/CycK is 6.94; in experiment [1] (setting [2]), 8.04.

In the case of `Fc1cc2nc(CNc3nc(N4CC5CCC(C4)N5)nc4c(Br)cnn34)[nH]c2cc1F` [Example 355, 8-bromo-2-(3,8-diazabicyclo[3.2.1]octan-3-yl)-N-[(5,6-difluoro-1H-benzimidazol-2-yl)methyl]pyrazolo[1,5-a][1,3,5]triazin-4-amine], the pIC50 is 5.38 at CDK12/CycK and 8.85 in experiment [1] (setting [2]).

As for `Fc1ccc(-c2nnc(CNc3nc(N4CCOCC4)nc4c(Br)cnn34)[nH]2)cc1` [Example 29, 8-bromo-N-{[5-(4-fluorophenyl)-4H-1,2,4-triazol-3-yl]methyl}-2-(morpholin-4-yl)pyrazolo[1,5-a][1,3,5]triazin-4-amine], the pIC50 on CDK12/CycK is 5.44; in experiment [1] (setting [2]) it was 7.67.

`CN1CCN(c2nc(NCc3nc4cc(F)c(Cl)cc4[nH]3)n3ncc(Br)c3n2)CC1` [Example 337, 8-bromo-N-[(6-chloro-5-fluoro-1H-benzimidazol-2-yl)methyl]-2-(4-methylpiperazin-1-yl)pyrazolo[1,5-a][1,3,5]triazin-4-amine]: the figures for the pIC50 (on CDK12/CycK; in experiment [1] (setting [2])) were 5.06 and > 8.00, respectively.

With `FC(F)(F)c1ccc2[nH]c(CNc3nc(N4CCOCC4)nc4c(Br)cnn34)nc2c1` [Example 339, 8-bromo-2-(morpholin-4-yl)-N-{[5-(trifluoromethyl)-1H-benzimidazol-2-yl]methyl}pyrazolo[1,5-a][1,3,5]triazin-4-amine], the results for the pIC50 (at CDK12/CycK; in experiment [1] (setting [2])) were 5.81 and 8.11, respectively.

As to `Fc1cc2nc(CNc3nc(N4CCOCC4)nc4c(Br)cnn34)[nH]c2cc1F` [Example 341, 8-bromo-N-[(5,6-difluoro-1H-benzimidazol-2-yl)methyl]-2-(morpholin-4-yl)pyrazolo[1,5-a][1,3,5]triazin-4-amine], the pIC50 at CDK12/CycK was 5.65; in experiment [1] (setting [2]), 8.29.

For the compound `Clc1cc2nc(CNc3nc(N4CC5CCC(C4)N5)nc4c(Br)cnn34)[nH]c2cc1Cl` [Example 334, 8-bromo-2-(3,8-diazabicyclo[3.2.1]octan-3-yl)-N-[(5,6-dichloro-1H-benzimidazol-2-yl)methyl]pyrazolo[1,5-a][1,3,5]triazin-4-amine], the pIC50 is 5.69 on CDK12/CycK and 8.40 in experiment [1] (setting [2]).

`Fc1cc2nc(CNc3nc(N4CCOCC4)nc4c(Br)cnn34)[nH]c2cc1Cl` [Example 336, 8-bromo-N-[(6-chloro-5-fluoro-1H-benzimidazol-2-yl)methyl]-2-(morpholin-4-yl)pyrazolo[1,5-a][1,3,5]triazin-4-amine]: the pIC50 at CDK12/CycK is 6.10; in experiment [1] (setting [2]) it was 8.10.

`CC(C)c1cnn2c(NCc3ncc(-c4ccccc4)[nH]3)nc(N3CCN(C)CC3)nc12` [Example 31, 2-(4-methylpiperazin-1-yl)-N-[(5-phenyl-1H-imidazol-2-yl)methyl]-8-(propan-2-yl)pyrazolo[1,5-a][1,3,5]triazin-4-amine]: the results for the pIC50 (on CDK12/CycK; in experiment [1] (setting [2])) were 4.87 and 7.82, respectively.

Take `CN(CC(C)(C)O)c1nc(NCc2nc3cc(Cl)c(Cl)cc3[nH]2)n2ncc(Br)c2n1` [Example 331, 1-[(8-bromo-4-{[(5,6-dichloro-1H-benzimidazol-2-yl)methyl]amino}pyrazolo[1,5-a][1,3,5]triazin-2-yl)(methyl)amino]-2-methylpropan-2-ol]: the pIC50 at CDK12/CycK was 6.46; in experiment [1] (setting [2]), 8.59.

Take `Fc1cccc(-c2nnc(CNc3nc(N4CCOCC4)nc4c(C(F)(F)F)cnn34)[nH]2)c1` [Example 385, N-{[5-(3-fluorophenyl)-4H-1,2,4-triazol-3-yl]methyl}-2-(morpholin-4-yl)-8-(trifluoromethyl)pyrazolo[1,5-a][1,3,5]triazin-4-amine]: the pIC50 on CDK12/CycK is 6.55; in experiment [1] (setting [2]), 7.50.
